According to patent US8642516B2, “Chemically-defined arrays for screening cell-substrate interactions” (Wisconsin Alumni Research Foundation, priority 2012, dated 2014):

Key:
HUVEC [1] = assay: HUVEC attachment to SAM spots presenting mutant ligand (Example 8); type: cell-based, human
Experimental: Specifically, SAM array spots presenting mixed ligands were prepared as described above. SAM arrays presenting varied ligand densities of covalently immobilized VEGF receptor-binding peptide ([…], here referred to as “VR-BP”; SEQ ID NO:17) and varied ligand densities of the fibronectin-derived cell adhesion peptide (GRGDSP, SEQ ID NO:18) were used to probe for changes in HUVEC attachment, proliferation and tubulogenesis. Control over individual ligand density was achieved by mixing scrambled VR-BP and mutant GRGESP (SEQ ID NO:19) with functional VR-BP or GRGDSP (SEQ ID NO:18) peptides, respectively. Therefore, in a typical SAM array, SAMs were locally formed within spots using an alkanethiolate mixture of 94% HS—C11-EG3-OH and 6% HS—C11-EG6-COOH to create substrates with a total of 6% carboxylate groups for peptide conjugation. Next, to create a spot presenting 5% GRGDSP (SEQ ID NO:18) and 1% VR-BP, a 300 μM peptide solution with 250 μM GRGDSP (SEQ ID NO:18) and 50 μM VR-BP was used during peptide conjugation. […] As mentioned previously, ligand concentrations were measured using UV/Vis since all peptides either contained residues that absorbed strongly at 280 nm, or were engineered to contain tryptophan residues in the poly-glycine tail. […]

hMSC = hMSC surface coverage over time on SAM spots presenting GRGDSP with BR-BP and HPG-BP; type: cell-based, human; details: low GRGDSP density SAM spots, cultured 20 days
Description: In this SAM array approach, each spot was designed to contain the same total molar density (mol/cm^2) of peptide from spot to spot. Therefore, control over individual peptide density was achieved by mixing scrambled BR-BP and HPG-BP and mutant GRGESP (SEQ ID NO:19) peptides with functional BR-BP, HPG-BP or GRGDSP (SEQ ID NO:18) peptides, respectively. Therefore, in a typical SAM array, SAMs were locally formed within spots using an alkanethiolate mixture of 95% HS—C11-EG3-OH and 5% HS—C11-EG6-COOH to create substrates with a total of 5% carboxylate groups for peptide conjugation. Here, “X %” refers to the mole percent of alkanethiolate present during SAM formation and subsequently the approximate amount of an alkanethiolate present on the surface after SAM formation. To regulate the density of active peptide present in each spot, mutant and scramble versions of peptides were included during peptide conjugation. […] As mentioned previously, peptide concentrations were easily measured using UV/Vis since all peptides either contained residues that absorbed strongly at 280 nm, or were engineered to contain tryptophan residues in the poly-glycine tail. […]

HUVEC [2] = assay: HUVEC proliferation (Click-it EdU) in response to soluble morphogens on SAM arrays; type: cell-based, human; details: soluble, 10 ng/ml, 24 hours, m199 with 2% FBS, highest ligand density spots
Experimental: Specifically, SAM array spots presenting mixed ligands were prepared as described above. SAM arrays presenting varied ligand densities of covalently immobilized VEGF receptor-binding peptide ([sequence], here referred to as “VR-BP”; SEQ ID NO:17) and varied ligand densities of the fibronectin-derived cell adhesion peptide (GRGDSP, SEQ ID NO:18) were used to probe for changes in HUVEC attachment, proliferation and tubulogenesis. Control over individual ligand density was achieved by mixing scrambled VR-BP and mutant GRGESP (SEQ ID NO:19) with functional VR-BP or GRGDSP (SEQ ID NO:18) peptides, respectively. Therefore, in a typical SAM array, SAMs were locally formed within spots using an alkanethiolate mixture of 94% HS—C11-EG3-OH and 6% HS—C11-EG6-COOH to create substrates with a total of 6% carboxylate groups for peptide conjugation. Next, to create a spot presenting 5% GRGDSP (SEQ ID NO:18) and 1% VR-BP, a 300 μM peptide solution with 250 μM GRGDSP (SEQ ID NO:18) and 50 μM VR-BP was used during peptide conjugation. Likewise, to create a spot presenting 2.5% GRGDSP (SEQ ID NO:18) and 0.1% VR-BP, a 300 μM peptide solution with 125 μM GRGDSP (SEQ ID NO:18), 125 μM GRGESP (SEQ ID NO:19), 5 μM VR-BP and 45 μM scrambled peptide was used during peptide conjugation. In this manner, the amount of active ligand could be varied between spots while holding the total ligand content constant.
Passage 2 HUVECs were expanded at low cell density (less than 70% confluence) on tissue culture polystyrene to no more than 14 population doublings. During HUVEC expansion, cells were cultured in medium 199 (m199, Mediatech, Manassas, Va.) containing 1% penicillin/streptomycin (Hyclone, Logan, Utah) and supplemented with Clonetics EGM-2 BullitKit (Lonza Walkersville, Inc., Walkersville, Md.) containing Hydrocortisone, hFGF-B, VEGF, R3-IGF-1, Ascorbic Acid, Heparin, FBS, hEGF, GA-1000 growth supplements. […]

HUVEC [3] = assay: HUVEC attachment to SAM spots presenting immobilized VR-BP; type: cell-based, human; details: immobilized 1% VR-BP vs scrambled peptide, highest GRGDSP densities, 1 hour
Experimental: (§1) Passage 2 HUVECs were expanded at low cell density (less than 70% confluence) on tissue culture polystyrene to no more than 14 population doublings. During HUVEC expansion, cells were cultured in medium 199 (m199, Mediatech, Manassas, Va.) containing 1% penicillin/streptomycin (Hyclone, Logan, Utah) and supplemented with Clonetics EGM-2 BullitKit (Lonza Walkersville, Inc., Walkersville, Md.) containing Hydrocortisone, hFGF-B, VEGF, R3-IGF-1, Ascorbic Acid, Heparin, FBS, hEGF, GA-1000 growth supplements. NIH 3T3 cells were expanded in Dulbecco's modified eagles medium (DMEM, Mediatech, Manassas, Va.) containing 1% penicillin/streptomycin and supplemented with 5% cosmic calf serum (Hyclone, Logan, Utah). Before seeding on SAM arrays, HUVECs in cell culture flasks were starved for 24 hours in medium containing 2% FBS and then removed from the plate using a 0.05% trypsin solution and resuspended in m199 with 2% FBS. Cell suspension was seeded onto SAM arrays in sterile polystyrene Petri dishes and incubated in a humid environment at 37° C. and 5% CO2. After allowing cells to attach for ˜1 hr, arrays were dipped in warm m199 with 2% FBS to remove loosely attached cells and then transferred to a rectangular multidish (Thermo Scientific/Nunc, Rochester, N.Y.) containing warm media with 2% FBS and imaged ˜2 hours later serving as “0 hr”. […]

NIH 3T3 fibroblasts = assay: NIH 3T3 attachment to SAM spots presenting immobilized VR-BP; type: cell-based; details: immobilized 1% VR-BP vs scrambled peptide, 1 hour
Experimental: as §1

HUVEC [4] = assay: HUVEC survival and proliferation on SAM arrays presenting immobilized VR-BP with VEGF / SU5416; type: cell-based, human
Experimental: as §1

HUVEC [5] = assay: Endothelial tubulogenesis on SAM spots with matrigel overlay; type: cell-based, human
Experimental: Specifically, SAM arrays seeded overnight with 50,000 HUVECs/cm^2 were rinsed with warm media and then flipped over onto cold matrigel (Growth factor reduced matrigel, BD Biosciences, Bedford, Mass.) in a rectangular multidish well containing varied concentrations of soluble recombinant VEGF. Matrigel was allowed to gel for 5 minutes, and then the array and matrigel layer were covered with warm m199 with 2% FBS. Arrays were then placed in a TIZ Tokai Hit incubated, humidified stage at 37° C. and 5% CO2 and each array spot was imaged using phase contrast microscopy every 15 minutes for 48 hours. Image analysis was performed using NIS Elements software. The total cell area and length of individual objects were measured in each array spot at 24 hours after seeding. To measure mean length of capillary-like structures, each image was contrasted and thresholded using a standard method to isolate elongated objects for automated length measurements. All objects with a length less than 20 μm were excluded from length measurements. To measure total area occupied by cells, the images were contrasted and thresholded to isolate all cell bodies from the background for automated area measurements. Objects with a length less than 10 μm were excluded from area measurements. Tubulogenesis in each spot was quantified by normalizing the mean length of objects to total cell area in each array spot. SAM array spots were imaged using a Nikon Eclipse Ti inverted microscope with a 10×PhL objective, equipped with Nikon's Perfect Focus System. 10× images were stitched using Nikon NIS Elements software to capture entire array spots and cell counting was performed using the cell counting application in NIS Elements. Statistical analysis of all data sets was performed using a two-tailed student's t-test, where p<0.05 is used to denote statistical significance.

GRGESP [mutant peptide mixed with GRGDSP to control ligand density]
HUVEC attachment (HUVEC [1]): did not promote HUVEC attachment

KIPKASSVPTEL [BR-BP]
hMSC surface coverage (hMSC): maintained hMSC surface coverage

KLTWQELYQLKYKGI [VR-BP]
HUVEC proliferation (EdU incorporation) compared to cells without stimulation (HUVEC [2]): significant increases in proliferation | HUVEC attachment (HUVEC [3]): significantly decreased | NIH 3T3 attachment (NIH 3T3 fibroblasts): no effect | HUVEC proliferation (HUVEC [4]; immobilized 1% VR-BP, in presence of soluble VEGF, high and low ligand densities): inhibited proliferation | HUVEC survival (HUVEC [4]; immobilized VR-BP at 1% density, without soluble VEGF or in presence of SU5416): decreased HUVEC survival | tubulogenesis (average tubule length per total cell area) (HUVEC [5]; 1% VR-BP vs 0% VR-BP, presence and absence of soluble VEGF): increased tubulogenesis | tubulogenesis (HUVEC [5]; 1% VR-BP vs lower VR-BP surfaces, absence of soluble VEGF): significantly increased

VEGF
HUVEC proliferation (EdU incorporation) compared to cells without stimulation (HUVEC [2]): increased HUVEC proliferation | tubulogenesis (average tubule length per total cell area) (HUVEC [5]; soluble VEGF protein): decreased tubulogenesis
